Counter-ions that a name gives are not always drawn.
How the values were obtained:
Biozzi ABH mice = assay: Chronic EAE in Biozzi ABH mice (spinal cord homogenate); format: in vivo, mouse; conditions: treatment from onset of clinical signs
T-cells = assay: Proliferation of T-lymphocytes (3H-thymidine) in anti-CD3/anti-CD28 activated splenocytes; format: cell-based, mouse; conditions: Mus musculus, T-cell, 72 h; drug 10 μM, vs activated splenocytes; read-out: mean reduction of 3H-thymidine incorporation (T-cell proliferation)
Protocol: A previously published protocol was used for isolating and activating T-cells (Keough et al., Nature Comm 7:11312, 2016). Spleens from female C57B16 mice were harvested and after mechanical dissociation the cell suspension was passed through a 70 μm cell strainer and separated by Ficoll gradient (1800 RPM, 30 min). Splenocytes were plated (2.5×10^5 cells in 100 μl/well) in anti-CD3 antibody coated 96-well plates (1,000 ng m1^−1 plate-bound anti-CD3 and 1,000 ng m1^−1 anti-CD28 suspended in media) to activate T-cells. Directly before plating, wells were treated with respective drugs in a final concentration of 10 μM. Cells were cultured in RPMI 1640 medium, supplemented with 10% FBS, 1 μM sodium pyruvate, 2 mM L-alanyl-L-glutamine, 1% penicillin/streptomycin, 1% HEPES and 0.05 mM 2-mercaptoethanol (all supplements were from Invitrogen). After 48 h, ^3H-thymidine was added in a concentration of 1 μCi per well, and cells were harvested after 24 h on filter mats. Mats were then evaluated for radioactivity (counts per minute) using a liquid scintillation counter.

B-cells [1] = assay: TNF-α release of activated B-cells (ELISA); format: cell-based, human; conditions: BCR/anti-CD40L/IL-4 activation
Protocol: (§1) Venous blood from healthy volunteers was obtained and peripheral blood mononuclear cells (PBMCs) were isolated by Ficoll gradient centrifugation (1800 RPM, 30 min). From PBMCs, B-cells were isolated by positive selection with CD19 directed microbeads (Stemcell Technologies). Purity was assessed by FACS after staining for CD19 (Stemcell Technologies). Cells were plated in a concentration of 2.5×10^5 cells/well in X-VIVO™ medium (Lonza) supplemented with 1% penicillin/streptomycin and 1% Glutamax and treated with drugs for 1 h. […] Medium as well as respective drugs were re-added followed by application of ^3H-thymidine in a concentration of 1 μCi per well to investigate proliferation.

microglia = conditions: shown previously; cited from earlier work
human neurons = assay: Live cell imaging of propidium iodide positive neurons challenged with FeSO4; format: cell-based; conditions: FeSO4 50 μM, pre-treatment 1 h
Protocol: Neurons were prepared as described above. Directly after the addition of FeSO4 to healthy neurons, the live cell-permeant Hoechst 33342 (1:2 diluted in AIM-V medium, nuclear blue; ThermoFisher Scientific, Grand Island, NY, USA) and the live cell-impermeable propinium iodide (PI, 1:20 diluted in AIM-V medium) were added in a volume of 20 μI (Sigma-Aldrich). In compromised cells, PI could now diffuse across the plasma membrane. Live cell imaging was performed using the automated ImageXpress® imaging system under controlled environmental conditions (37° C. and 5% CO2). Images were taken from 9 sites per well at baseline and then every 30 min for 12h. After export with MetaXpress®, videos were edited with ImageJ (NIH) in a uniform manner. Nuclei were pseudo colored in cyan, PI-positive cells in red.
Live cell imaging over 12 h supported the neuroprotective effects of drugs. We selected indapamide and desipramine for live imaging studies.

B-cells [2] = assay: Proliferation of activated B-cells (3H-thymidine); format: cell-based, human; conditions: BCR/anti-CD40L/IL-4 activation
Protocol: as §1

[3] = Hydroxyl radical antioxidant capacity (HORAC) assay; format: biochemical; conditions: vs 12.5 μM gallic acid (=1), 60 min
Protocol: In this assay, hydroxyl radicals generated by a Co(II)-mediated Fenton-like reaction oxidize fluorescein causing loss of fluorescence (Ou et al., J Argricultural Food Chemistry 50:2772-2777, 2002). The presence of an anti-oxidant reduces the loss of fluorescence and this can be monitored every 5 min over a period of 60 min with a Spectra Max Gemini XS plate reader (Molecular Devices, Sunnyvale, Calif., USA) and the software SoftMax Pro version 5. For monitoring fluorescence, we used an excitation wavelength of λ=485 nm and an emission wavelength of λ=520 nm.
The biochemical cell free hydroxyl radical antioxidant capacity (HORAC) assay investigates the prevention of hydroxyl radical mediated oxidation of to fluorescein in comparison to the strong anti-oxidant gallic acid. The generation of hydroxyl radicals by a cobalt-driven Fenton-like reaction oxidizes fluorescein with progressive loss of fluorescence. The presence of an anti-oxidant reduces the loss of fluorescence over time.
We compared the area under the curve of test compounds to that elicited by gallic acid to obtain the gallic acid equivalent (GAE).

CN(C)CCCN1c2ccccc2CCc2ccc(Cl)cc21 [CLOMIPRAMINE HYDROCHLORIDE]
clinical severity in chronic EAE (Biozzi ABH mice): reduced clinical severity
inhibition at 10 µM (T-cells): 68.2%
concentration from which production of TNF-α of activated B-cells is reduced (B-cells [1]): 2 µM
microglia inhibitory activity (microglia): did not have microglia inhibitory activity
number of PI-positive neurons in response to FeSO4 over 12 h (human neurons): attenuated
concentration from which proliferation of activated B-cells is reduced (B-cells [2]): 2 µM
mean HORAC-GAE (gallic acid equivalents) [3]: 2.1
